Reference: US7220721B1, “Exendin agonist peptides” (Amylin Pharmaceuticals, Inc., priority 1997, dated 2007)

What was measured:
C57BLKS/J-m-db mice = assay: Determination of blood glucose levels in db/db mice; assay type: in vivo; conditions: percent decrease in plasma glucose from baseline one hour after subcutaneous injection of 1 μg
cyclase (membranes) = assay: Cyclase activation study (cAMP SPA immunoassay); assay type: biochemical; conditions: cAMP in supernatant after 20 minutes incubation at 37° C. of membranes and peptides
Method: GLP-1[7–36]NH2 (GLP-1) was purchased from Bachem (Torrance, Calif.). All other peptides were prepared using synthesis methods such as those described therein. All chemicals were of the highest commercial grade. The cAMP SPA immunoassay was purchased from Amersham. The radioligands were purchased from New England Nuclear (Boston, Mass.). […] Cells were grown at 37° C. and 5% CO2/95% humidified air and medium was replaced every 2 to 3 days. Cells were grown to confluence then harvested and homogenized using on a Polytron homogenizer. Cell homogenates were stored frozen at −70° C. until used. Assay buffer contained 10 μM GTP, 0.75 mM ATP, 2.5 mM MgCl21 0.5 mM phosphocreatine, 12.5 U/ml creatine kinase, 0.4 mg/ml aprotinin, 1 μM IBMX in 50 mM HEPES, pH 7.4. Membranes and peptides were combined in […] of assay buffer in 96 well filter-bottom plates (Millipore Corp., Bedford, Mass.). […] Supernatant cAMP contents were quantitated by SPA immunoassay. […] The biological activity of a particular sample was expressed as an EC50 value, calculated as described above.

[1] = molecular target: GLP-1 receptor (on RINm5f membranes) (UniProt P32301)
GLP-1 receptor (on RINm5f membranes), sequence (P32301 22-463 limits assumed): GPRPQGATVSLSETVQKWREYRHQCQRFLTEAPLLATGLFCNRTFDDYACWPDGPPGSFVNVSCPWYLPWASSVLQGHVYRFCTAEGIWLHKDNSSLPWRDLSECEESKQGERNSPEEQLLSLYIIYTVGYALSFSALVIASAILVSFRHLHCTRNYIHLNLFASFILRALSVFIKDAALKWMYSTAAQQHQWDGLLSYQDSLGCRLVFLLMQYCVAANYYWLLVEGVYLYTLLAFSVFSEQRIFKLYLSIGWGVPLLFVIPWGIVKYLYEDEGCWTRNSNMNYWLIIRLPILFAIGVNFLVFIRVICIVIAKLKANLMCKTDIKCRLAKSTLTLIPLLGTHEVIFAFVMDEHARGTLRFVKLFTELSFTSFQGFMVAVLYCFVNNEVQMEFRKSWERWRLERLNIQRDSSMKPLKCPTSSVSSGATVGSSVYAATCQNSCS

Compound	% drop in glucose (C57BLKS/J-m-db mice) [%]	EC50 (cyclase (membranes)) [µM]	IC50 [1] [µM]
CC[C@H](C)[C@H](NC(=O)[C@H](Cc1ccccc1)NC(=O)[C@H](CC(C)C)NC(=O)[C@H](CCCNC(=N)N)NC(=O)[C@@H](NC(=O)[C@H](C)NC(=O)[C@H](CCC(=O)O)NC(=O)[C@H](CCC(=O)O)NC(=O)[C@H](CCC(=O)O)NC(=O)[C@H](CC(C)C)NC(=O)[C@H](CCC(N)=O)NC(=O)[C@H](CCCCN)NC(=O)[C@H](CO)NC(=O)[C@H](CC(C)C)NC(=O)[C@H](CC(=O)O)NC(=O)[C@H](CO)NC(=O)[C@@H](NC(=O)[C@H](Cc1ccccc1)NC(=O)[C@@H](NC(=O)CNC(=O)[C@H](CCC(=O)O)NC(=O)CNC(=O)[C@H](C)N)[C@@H](C)O)[C@@H](C)O)C(C)C)C(=O)N[C@@H](CCC(=O)O)C(=O)N[C@@H](Cc1ccccc1)C(=O)N[C@@H](CC(C)C)C(=O)N[C@@H](CCCCN)C(=O)N[C@@H](CC(N)=O)C(N)=O [Compound 1]	40	> 1	
CC[C@H](C)[C@H](NC(=O)[C@H](Cc1ccccc1)NC(=O)[C@H](CC(C)C)NC(=O)[C@H](CCCNC(=N)N)NC(=O)[C@@H](NC(=O)[C@H](C)NC(=O)[C@H](CCC(=O)O)NC(=O)[C@H](CCC(=O)O)NC(=O)[C@H](CCC(=O)O)NC(=O)[C@H](CC(C)C)NC(=O)[C@H](CCC(N)=O)NC(=O)[C@H](CCCCN)NC(=O)[C@H](CO)NC(=O)[C@H](CC(C)C)NC(=O)[C@H](CC(=O)O)NC(=O)[C@H](CO)NC(=O)[C@@H](NC(=O)[C@H](Cc1ccccc1)NC(=O)[C@@H](NC(=O)CNC(=O)[C@H](C)NC(=O)CNC(=O)[C@@H](N)Cc1c[nH]cn1)[C@@H](C)O)[C@@H](C)O)C(C)C)C(=O)N[C@@H](CCC(=O)O)C(=O)N[C@@H](Cc1ccccc1)C(=O)N[C@@H](CC(C)C)C(=O)N[C@@H](CCCCN)C(=O)N[C@@H](CC(N)=O)C(N)=O [Compound 2]	41	> 10	
CC[C@H](C)[C@H](NC(=O)[C@H](Cc1ccccc1)NC(=O)[C@H](CC(C)C)NC(=O)[C@H](CCCNC(=N)N)NC(=O)[C@@H](NC(=O)[C@H](C)NC(=O)[C@H](CCC(=O)O)NC(=O)[C@H](CCC(=O)O)NC(=O)[C@H](CCC(=O)O)NC(=O)[C@H](CC(C)C)NC(=O)[C@H](CCC(N)=O)NC(=O)[C@H](CCCCN)NC(=O)[C@H](CO)NC(=O)[C@H](CC(C)C)NC(=O)[C@H](CC(=O)O)NC(=O)[C@H](CO)NC(=O)[C@@H](NC(=O)[C@H](Cc1ccccc1)NC(=O)[C@@H](NC(=O)[C@H](C)NC(=O)[C@H](CCC(=O)O)NC(=O)CNC(=O)[C@@H](N)Cc1c[nH]cn1)[C@@H](C)O)[C@@H](C)O)C(C)C)C(=O)N[C@@H](CCC(=O)O)C(=O)N[C@@H](Cc1ccccc1)C(=O)N[C@@H](CC(C)C)C(=O)N[C@@H](CCCCN)C(=O)N[C@@H](CC(N)=O)C(N)=O [Compound 3]	32	> 10	
CC[C@H](C)[C@H](NC(=O)[C@H](Cc1ccccc1)NC(=O)[C@H](CC(C)C)NC(=O)[C@H](CCCNC(=N)N)NC(=O)[C@@H](NC(=O)[C@H](C)NC(=O)[C@H](CCC(=O)O)NC(=O)[C@H](CCC(=O)O)NC(=O)[C@H](CCC(=O)O)NC(=O)[C@H](CC(C)C)NC(=O)[C@H](CCC(N)=O)NC(=O)[C@H](CCCCN)NC(=O)[C@H](CO)NC(=O)[C@H](CC(C)C)NC(=O)[C@H](C)NC(=O)[C@H](CO)NC(=O)[C@@H](NC(=O)[C@H](Cc1ccccc1)NC(=O)[C@@H](NC(=O)CNC(=O)[C@H](CCC(=O)O)NC(=O)CNC(=O)[C@@H](N)Cc1c[nH]cn1)[C@@H](C)O)[C@@H](C)O)C(C)C)C(=O)N[C@@H](CCC(=O)O)C(=O)N[C@@H](Cc1ccccc1)C(=O)N[C@@H](CC(C)C)C(=O)N[C@@H](CCCCN)C(=O)N[C@@H](CC(N)=O)C(N)=O [Compound 4]	42	> 10	
Exendin-4 [SEQ. ID. NO. 2] (peptide)			0.0007
